Data taken from the NIST ThermoML archive (doi:10.1016/j.jct.2016.09.028).
± gives the expanded uncertainty stated by the source.

Columns and labels:
[1] = 100 kPa, Liquid; for speed of sound: Frequency=3 MHz, Sing-around technique in a fixed-path interferometer; for mass density: Vibrating tube method
[2] = xn = mol fraction of the nth substance listed; settings: 100 kPa, Liquid, x1 = 1; for speed of sound: Frequency=3 MHz, Sing-around technique in a fixed-path interferometer; for mass density: Vibrating tube method

Row | SMILES | speed of sound ([1]; 293.15 K) | mass density ([1]; 293.15 K) | speed of sound ([1]; 303.15 K) | mass density ([1]; 303.15 K) | speed of sound ([1]; 313.15 K) | mass density ([1]; 313.15 K) | speed of sound ([1]; 323.15 K) | mass density ([1]; 323.15 K) | speed of sound ([2]; 293.15 K) | mass density ([2]; 293.15 K) | speed of sound ([2]; 303.15 K) | mass density ([2]; 303.15 K) | speed of sound ([2]; 313.15 K) | mass density ([2]; 313.15 K) | speed of sound ([2]; 323.15 K) | mass density ([2]; 323.15 K)
1 | CCn1cc[n+](C)c1.F[B-](F)(F)F [1-ethyl-3-methylimidazolium tetrafluoroborate] | 1632.6 ± 2.4 m/s | 1283.64 ± 1.7 kg/m3 | 1609.5 ± 2.4 m/s | 1276.12 ± 1.7 kg/m3 | 1586.2 ± 2.4 m/s | 1268.57 ± 1.6 kg/m3 | 1563.4 ± 2.3 m/s | 1261.04 ± 1.6 kg/m3 | – | – | – | – | – | – | – | –
2 | CCn1cc[n+](C)c1.F[B-](F)(F)F [1-ethyl-3-methylimidazolium tetrafluoroborate] + Nc1ccccc1 | – | – | – | – | – | – | – | – | 1632.6 ± 2.4 m/s | 1283.64 ± 1.7 kg/m3 | 1609.5 ± 2.4 m/s | 1276.12 ± 1.7 kg/m3 | 1586.2 ± 2.4 m/s | 1268.57 ± 1.6 kg/m3 | 1563.4 ± 2.3 m/s | 1261.04 ± 1.6 kg/m3
